Key:
HDAC2 = biological target: T1, HDAC2 (Homo sapiens, UniProt Q92769); test: HDAC enzyme activity assay (fluorogenic substrate), HDAC2; format: biochemical; details: recombinant enzyme; read-out: HDAC2 inhibition (IC50)
T1 construct: NM_001527; Cat. #50002) is full-length with C-terminal his tag; His (C); purchased BPS Biosciences 50002; host or cells: baculovirus infected Sf9 cells

[1] = test system: carboxyl terminal fragment AβPP (C99); test: AD-related markers in Tg2576 neurons: APP processing (C99); format: cell-based; details: Mus musculus, Neuron, 48 h, treated two days, EC50 = 50% decrease in C99 over basal
Protocol: The effects of the compounds on amyloid pathology were analysed in primary cultures (15 DIV) of neurons derived from the hippocampus and cortex of Tg2576 mouse embryos. Tg2576 mice express the human 695-aa isoform of APP (hAPP) containing the Swedish double mutation, which favours Aβ production. Neurons were treated for two days and collected at day 3, 24 h after the last treatment. First it was analysed the effect of the compounds on hAPP processing by the amyloidogenic pathway by measuring the carboxyl terminal fragment AβPP (C99), which is the precursor of Aβ42. In this case the reported EC50, Table 2 (below), means a 50% decrease in C99 levels over basal (saline, no treatment).
To analyze APP-derived fragments and p-tau levels in primary neuronal cultures, cells were collected in a buffer containing SDS (2%), Tris-HCl (10 mM, pH 7.4), protease inhibitors (1 mM PMSF and Complete Protease Inhibitor Cocktail: Roche Diagnostics) and phosphatase inhibitors (0.1 mM Na3VO4 and 1 mM NaF). The homogenates were sonicated for 2 min and centrifuged at 100,000×g for 1 h. Aliquots of the supernatant were frozen at −80° C. and their protein concentrations determined by the Bradford method using the Bio-Rad protein assay (Bio-Rad, Hercules, Calif., USA). Aliquots of the protein extracts were mixed with XT sample buffer plus XT reducing agent (Bio-Rad, Hercules, Calif., USA) and boiled for 5 min. Proteins were separated in a Criterion precast Bis-Tris 4-12% gradient precast gel (Bio-Rad, Hercules, Calif., USA) and transferred to a PVDF membrane with a removal rating of […] (Hybond LFP, Amersham Biosciences, Little Chalfont, UK). The membranes were blocked with 5% milk, 0.05% Tween-20 in PBS or TBS, and incubated overnight with the following primary antibodies in the corresponding buffers: mouse monoclonal anti-phosphotau AT8 (Pierce Biotechnology Inc., Rockford), mouse monoclonal anti-tau (clone Tau46, Sigma-Aldrich, St Louis, Mo.), 6E10 mouse monoclonal antibody (amino acids 1-17 of Aβ peptide; Millipore), mouse monoclonal anti-β-actin, mouse monoclonal anti-α-tubulin and mouse monoclonal anti-Acetylated-tubulin (Sigma). All antibodies were used at dilutions of 1:1,000 except for the mouse monoclonal anti-β-actin, anti-Acetylated-tubulin and anti-tubulin (1:50,000). Following two washes in TBS/Tween20 and one wash in TBS alone, immunolabelled protein bands were detected using HRP-conjugated anti-rabbit or anti-mouse antibodies (diluted 1:5,000: Santa Cruz). Binding was visualised by enhanced chemiluminescence (ECL, GE Healthcare Bioscience, Buckinghamshire, UK) and autoradiographic exposure to Hyperfilm ECL (GE Healthcare Bioscience), using Quantity One™ software v.4.6.3 (Bio-Rad) for quantification.

HDAC6 = biological target: T2, HDAC6 (Homo sapiens, UniProt Q9UBN7); test: HDAC enzyme activity assay (fluorogenic substrate), HDAC6; format: biochemical; details: recombinant enzyme; read-out: HDAC6 inhibition (IC50)
T2 construct: BC069243; Cat. #50006) is full-length with N-terminal GST tag; GST (N); purchased BPS Biosciences 50006; host or cells: baculovirus infected Sf9 cells
T2 sequence (Q9UBN7 1-1215): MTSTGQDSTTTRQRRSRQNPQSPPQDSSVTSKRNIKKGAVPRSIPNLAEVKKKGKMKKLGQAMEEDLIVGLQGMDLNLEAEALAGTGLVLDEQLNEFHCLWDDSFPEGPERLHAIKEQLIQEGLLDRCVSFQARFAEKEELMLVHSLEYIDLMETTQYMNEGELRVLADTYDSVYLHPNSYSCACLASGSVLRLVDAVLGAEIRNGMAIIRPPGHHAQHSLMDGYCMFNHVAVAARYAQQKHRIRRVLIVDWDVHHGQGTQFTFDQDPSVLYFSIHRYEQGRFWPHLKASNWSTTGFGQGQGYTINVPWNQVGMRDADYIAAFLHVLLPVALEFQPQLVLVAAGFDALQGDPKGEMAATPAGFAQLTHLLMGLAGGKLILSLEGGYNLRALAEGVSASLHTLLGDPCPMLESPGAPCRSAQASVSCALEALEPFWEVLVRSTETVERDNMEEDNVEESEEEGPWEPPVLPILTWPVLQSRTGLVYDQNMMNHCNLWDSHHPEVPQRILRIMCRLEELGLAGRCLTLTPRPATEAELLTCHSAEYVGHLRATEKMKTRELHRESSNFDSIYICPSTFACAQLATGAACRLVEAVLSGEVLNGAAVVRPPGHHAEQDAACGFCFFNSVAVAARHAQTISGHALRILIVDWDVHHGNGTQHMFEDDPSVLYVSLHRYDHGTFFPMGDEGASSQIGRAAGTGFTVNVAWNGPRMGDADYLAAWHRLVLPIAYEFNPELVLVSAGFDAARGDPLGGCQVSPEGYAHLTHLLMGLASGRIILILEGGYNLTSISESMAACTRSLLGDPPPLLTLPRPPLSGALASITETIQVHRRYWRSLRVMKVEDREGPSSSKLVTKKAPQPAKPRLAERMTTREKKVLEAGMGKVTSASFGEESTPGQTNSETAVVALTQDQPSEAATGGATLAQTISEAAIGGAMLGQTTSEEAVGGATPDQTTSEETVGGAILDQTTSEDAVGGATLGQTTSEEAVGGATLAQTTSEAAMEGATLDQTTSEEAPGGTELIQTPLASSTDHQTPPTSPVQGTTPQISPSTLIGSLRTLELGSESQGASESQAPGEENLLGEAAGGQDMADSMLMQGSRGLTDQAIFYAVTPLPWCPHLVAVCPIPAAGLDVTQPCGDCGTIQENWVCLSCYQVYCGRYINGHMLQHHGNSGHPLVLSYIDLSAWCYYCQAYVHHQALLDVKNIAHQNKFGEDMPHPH

T1 sequence (Q92769 whole entry): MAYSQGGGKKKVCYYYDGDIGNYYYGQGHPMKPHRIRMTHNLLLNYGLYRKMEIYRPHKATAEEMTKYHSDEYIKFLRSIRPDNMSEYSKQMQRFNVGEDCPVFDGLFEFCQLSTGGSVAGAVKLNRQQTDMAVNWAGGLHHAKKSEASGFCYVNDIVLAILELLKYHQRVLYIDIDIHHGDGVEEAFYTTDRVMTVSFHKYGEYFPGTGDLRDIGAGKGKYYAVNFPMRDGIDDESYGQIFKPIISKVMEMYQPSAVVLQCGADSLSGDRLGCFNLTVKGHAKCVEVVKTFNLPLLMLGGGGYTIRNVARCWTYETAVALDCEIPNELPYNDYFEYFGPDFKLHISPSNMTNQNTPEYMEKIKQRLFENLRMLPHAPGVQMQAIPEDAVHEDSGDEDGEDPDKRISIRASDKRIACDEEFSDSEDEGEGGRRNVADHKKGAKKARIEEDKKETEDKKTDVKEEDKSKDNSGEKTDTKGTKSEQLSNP

Row | Compound | IC50 (HDAC2) [nM] | EC50 [1] [nM] | IC50 (HDAC6) [nM]
1 | CCCc1nn(C)c2c(=O)[nH]c(-c3cc(Cc4ccc(C(=O)NO)s4)ccc3OCC)nc12 [Example 1-16] | 1000 to 10000 | 10 to 1000 | 10 to 1000
2 | CCCc1nn(C)c2c(=O)[nH]c(-c3cc(CC4CC(C(=O)NO)C4)ccc3OCC)nc12 (racemic) [Example 1-19, 3-[[4-ethoxy-3-(1-methyl-7-oxo-3-propyl-6H-pyrazolo[4,3-d]pyrimidin-5-yl)phenyl]methyl]cyclobutanecarbohydroxamic acid] | 10 to 1000 | 10 to 1000 | 10 to 1000
3 | CCCc1nn(C)c2c(=O)[nH]c(-c3cc(Cc4ccc(C(=O)NO)cc4)ccc3OCC)nc12 [Example 1-15, 4-[[4-ethoxy-3-(1-methyl-7-oxo-3-propyl-6H-pyrazolo[4,3-d]pyrimidin-5-yl)phenyl]methyl]benzenecarbohydroxamic acid] | 1000 to 10000 | 10 to 1000 | 10 to 1000
4 | CCCc1nn(C)c2c(=O)[nH]c(-c3cc(S(=O)(=O)N4CCN(c5ncc(C(=O)NO)cn5)CC4)ccc3OCC)nc12 [Example 1-06, 2-(4-[3-(6,7-Dihydro-1-methyl-7-oxo-3-propyl-1H-pyrazolo[4,3-d]pyrimidin-5-yl)-4-ethoxyphenylsulfonyl]piperazin-1-yl)-N-hydroxypyrimidine-5-carboxamide] | 10 to 1000 | 10 to 1000 | 10 to 1000

Source: US9573956B2, “Compounds as dual inhibitors of phosphodiesterases and histone deacetylases” (FUNDACIÓN PARA LA INVESTIGACIÓN MÉDICA APLICADA, priority 2013, dated 2017)
